The values below come from article PMC10645073, “Interaction of gallium, indium and vanadyl diacetylcurcumin complexes with lysozyme: mechanistic aspects and evaluation of antiamyloidogenic activity” (Royal Society Open Science, 2023).

The target of assay [1] is T1, hen egg white lysozyme (HEWL) (Gallus gallus, UniProt P00698).
T1 construct: whose 129 amino acid residues are linked together by four disulfide bridges to form a single polypeptide chain; purchased Sigma-Aldrich L6876; host or cells: hen egg white (natural source, per the protein's name)
As to the kind of experiment: Intrinsic fluorescence quenching of HEWL (Stern-Volmer, double logarithmic and van't Hoff analysis). The following applies: for KSV (Stern-Volmer quenching constant): HEWL 3 µM; for kq (bimolecular quenching rate constant): kq = KSV/τ0, τ0 10^−8 s; for blue shift of HEWL emission maximum on quenching: excitation 295 nm, emission maximum 345 nm; for fluorescence quenching mechanism: from KSV versus temperature and kq; for main forces / modes of interaction stabilizing the bioconjugate: from signs of ΔH^0 and ΔS^0; for binding constant, order of magnitude: summary of table 1; for ΔH^0 (enthalpy change of binding) / ΔS^0 (entropy change of binding): van't Hoff plot over 293–308 K. The format is binding. Here is the method:
The intrinsic fluorescence spectra of HEWL (3 µM) in the absence and presence of Ga(DAC)3, In(DAC)3 and VO(DAC)2 complexes were collected using a Varian Cary Eclipse fluorescence spectrophotometer equipped with a 10 mm quartz cell by adjusting the excitation wavelength to 295 nm and setting the width of both excitation and emission slits at 5 nm. After adding the mentioned concentrations of the metal complexes of diacetylcurcumin to HEWL solution, the samples were scanned in the wavelength range of 300–500 nm. Corrections were made for the inner filter effect on the fluorescence spectra according to the following equation: Fcor=Fobs×10^(Aex+Aem)/2, where Fcor is corrected fluorescence intensity, Fobs is the observed (uncorrected) fluorescence intensity, Aex is the absorbance at the fluorescence excitation wavelength and Aem is the absorbance at the selected fluorescence emission wavelength.
The fluorescence quenching process of HEWL in the presence of three metal complexes of diacetylcurcumin can be quantified according to the well-known Stern-Volmer equation:3.1 F0/F=1+KSV[Q]=1+kqτ0[Q],
where F0 and F represent the intrinsic emission intensities of HEWL fluorophores, respectively, in the absence and presence of the metal complexes of diacetylcurcumin, and [Q] is the molar concentration of quencher. KSV, kq and τ0 denote the Stern-Volmer quenching constant, bimolecular quenching rate constant, and the average lifetime of fluorophore without quencher, respectively. The value of KSV, as a parameter of the sensitivity of the fluorophore to a quencher, can be estimated from the slope of the linear plot of F0/F as a function of [Q] (figure 2d,e,f; electronic supplementary material, figure S1). To obtain more accurate quantification of fluorescence data, the total area of the emission fluorescence peaks (S0 and S) was applied instead of the emission fluorescence intensities (F0 and F). The fluorescence quenching phenomenon can be generally divided into two distinct classes: static quenching and dynamic quenching. Owing to the reciprocal and direct correlations between the KSV parameter and temperature, respectively, for static and dynamic quenching, the observed trend in the KSV value versus temperature can be used to distinguish these mechanisms from each other. In dynamic quenching, an increase in temperature leads to faster diffusion of molecules by which weakly bound nonfluorescent complexes are further dissociated, and the value of KSV increases. From the data recorded in table 1, it can be seen that the KSV value of HEWL/Ga(DAC)3 and HEWL/In(DAC)3 systems decreases as temperature increases, while it increases with increasing temperature for the HEWL/VO(DAC)2 system. […] Considering a lifetime value of 10^−8 s for the native fluorophores, [27] the equation kq = KSV/τ0 gives the kq values greater than the diffusion-limited quenching value of 2.0 × 10 ^+ 10 M^−1 s^−1 for all systems.
Assuming that all the binding sites of HEWL are identical and independent and an equilibrium interaction is established between HEWL and each of the metal complexes of diacetylcurcumin, the fluorescence quenching process can be further analysed by the following double logarithmic equation:3.2 log(F0−F/F)=logKb+nlog[Q], where Kb and n represent the binding constant and number of binding sites on each HEWL molecule, respectively. Plotting log[(F0 − F)/F] versus log[Q] produces a straight line whose slope and intercept can be used respectively to estimate the values of n and Kb (electronic supplementary material, figures S2A, S2B, S2C and S3). […] In other words, the resulting bioconjugates are the product of the interaction between HEWL and the metal complexes of diacetylcurcumin with a 1 : 1 stoichiometry. […]

The target of assay [2] is T1, hen egg white lysozyme (HEWL). The assay can be described thus: Förster resonance energy transfer (FRET) binding distance, HEWL donor / metal complex acceptor. The text has this: Förster resonance energy transfer (FRET) is a sensitive fluorescence-based approach that acts as a spectroscopic ruler to determine the binding distances within 1–10 nm between interacting molecules. Owing to the good overlap between the emission fluorescence spectrum of HEWL, as donor molecule, and the absorption spectra of three metal complexes of diacetylcurcumin, as acceptor molecules (electronic supplementary material, figure S4), the FRET method was used to obtain distance-dependent information of the donor-acceptor pairs. According to Förster's non-radiative energy transfer theory, the value of energy transfer efficiency, E, can be measured using the following equation:3.5 E=1−F/F0=R06/R06+r^6, where R0 and r represent the critical energy transfer distance and distance between donor and acceptor, respectively. The R0 parameter, the distance for 50% energy transfer, can be also calculated by the following equation:3.6 R06=8.79 × 10^−25[K^2n^−4ϕJ(λ)],
where K^2 is the relative orientation of the donor and acceptor (equal to 2/3 for a random orientation), n denotes the average refractive index of the medium (equal to 1.33), and φ represents the fluorescence quantum yield of the donor (equal to 0.15). […] Therefore, it can be concluded that a non-radiative energy transfer process contributes to the fluorescence quenching of HEWL by the metal complexes of diacetylcurcumin. […]

T1 sequence (P00698 19-147): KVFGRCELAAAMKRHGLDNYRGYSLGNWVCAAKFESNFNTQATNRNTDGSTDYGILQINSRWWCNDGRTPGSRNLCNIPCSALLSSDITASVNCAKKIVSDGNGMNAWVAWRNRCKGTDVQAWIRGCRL

Turning to `COc1cc(/C=C/C(=O)C=C([O-])/C=C/c2ccc(OC(C)=O)c(OC)c2)ccc1OC(C)=O.COc1cc(/C=C/C(=O)C=C([O-])/C=C/c2ccc(OC(C)=O)c(OC)c2)ccc1OC(C)=O.[O]=[V+2]` [VO(DAC)2, vanadyl diacetylcurcumin], in assay [1] (T 293 K), the “n (number of binding sites on each HEWL molecule)” value was “(1.35 ± 0.04)”, the “ΔG^0 (Gibbs free energy change of binding)” value was -34.38 ± 3.59 kJ/mol, the “KSV (Stern-Volmer quenching constant)” value is reported as “(2.70 ± 0.02) × 10^+4 M^−1” and the “kq (bimolecular quenching rate constant)” value is on record as “(2.70 ± 0.02) × 10^+12 M^−1 s^−1”. In assay [1] (T 298 K), the “n (number of binding sites on each HEWL molecule)” value was “(1.15 ± 0.03)”, the “ΔG^0 (Gibbs free energy change of binding)” value is -29.26 ± 3.59 kJ/mol, the “KSV (Stern-Volmer quenching constant)” value is “(2.70 ± 0.04) × 10^+4 M^−1” and the “kq (bimolecular quenching rate constant)” value was “(2.70 ± 0.04) × 10^+12 M^−1 s^−1”. Moreover, in assay [1] (T 303 K), the “n (number of binding sites on each HEWL molecule)” value was “(0.93 ± 0.02)”, the “ΔG^0 (Gibbs free energy change of binding)” value is -24.13 ± 3.59 kJ/mol, the “KSV (Stern-Volmer quenching constant)” value is given as “(2.78 ± 0.03) × 10^+4 M^−1” and the “kq (bimolecular quenching rate constant)” value was “(2.78 ± 0.03) × 10^+12 M^−1 s^−1”. Further, in assay [1] (T 308 K), the “n (number of binding sites on each HEWL molecule)” value is given as “(0.75 ± 0.04)”, the “ΔG^0 (Gibbs free energy change of binding)” value is -19.01 ± 3.59 kJ/mol, the “KSV (Stern-Volmer quenching constant)” value is on record as “(2.80 ± 0.02) × 10^+4 M^−1” and the “kq (bimolecular quenching rate constant)” value is recorded as “(2.80 ± 0.02) × 10^+12 M^−1 s^−1”. Also, in assay [1], the “blue shift of HEWL emission maximum on quenching” value was 2 nm; the fluorescence quenching mechanism result was “dual mechanism, including both static and dynamic quenching”; the “main forces / modes of interaction stabilizing the bioconjugate” value is “van der Waals interactions and hydrogen bonds”; the “binding constant, order of magnitude” value was 10^+6 to 10^+3 M^−1. For the same molecule, in assay [1], the “ΔH^0 (enthalpy change of binding)” value was -334.67 ± 1.03 kJ/mol and the “ΔS^0 (entropy change of binding)” value was −1024.87 ± 3.44 J mol^−1 K^−1.
In the case of `COc1cc(C=CC(=O)C=C([O-])C=Cc2ccc(OC(C)=O)c(OC)c2)ccc1OC(C)=O.COc1cc(C=CC(=O)C=C([O-])C=Cc2ccc(OC(C)=O)c(OC)c2)ccc1OC(C)=O.COc1cc(C=CC(=O)C=C([O-])C=Cc2ccc(OC(C)=O)c(OC)c2)ccc1OC(C)=O.[In+3]` [In(DAC)3, indium diacetylcurcumin], in assay [2], the “binding distance r between donor and acceptor” value is “least value of the binding distance”; the “energy transfer value (E)” value was 18%. Also, in assay [1] (T 293 K), the “n (number of binding sites on each HEWL molecule)” value is recorded as “(1.26 ± 0.01)”, the “ΔG^0 (Gibbs free energy change of binding)” value is -35.01 ± 0.01 kJ/mol, the “KSV (Stern-Volmer quenching constant)” value is “(0.10 ± 0.00) × 10^+6 M^−1” and the “kq (bimolecular quenching rate constant)” value is given as “(0.10 ± 0.00) × 10^+14 M^−1 s^−1”. Also, in assay [1] (T 303 K), the “n (number of binding sites on each HEWL molecule)” value was “(1.25 ± 0.04)”, the “ΔG^0 (Gibbs free energy change of binding)” value is -36.19 ± 0.01 kJ/mol, the “KSV (Stern-Volmer quenching constant)” value is recorded as “(9.61 ± 0.10) × 10^+5 M^−1” and the “kq (bimolecular quenching rate constant)” value is recorded as “(9.61 ± 0.10) × 10^+13 M^−1 s^−1”. Also, in assay [1] (T 308 K), the “n (number of binding sites on each HEWL molecule)” value is listed as “(1.25 ± 0.02)”, the “ΔG^0 (Gibbs free energy change of binding)” value is -36.77 ± 0.01 kJ/mol, the “KSV (Stern-Volmer quenching constant)” value is “(1.04 ± 0.02) × 10^+5 M^−1” and the “kq (bimolecular quenching rate constant)” value is “(1.04 ± 0.02) × 10^+13 M^−1 s^−1”. In addition, in assay [1], the “blue shift of HEWL emission maximum on quenching” value worked out at 4 nm; the fluorescence quenching mechanism entry is “static mechanism”; the “main forces / modes of interaction stabilizing the bioconjugate” value was “electrostatic interactions”; the “binding constant, order of magnitude” value is reported as 10^+6 M^−1. Also, in assay [1], the “ΔH^0 (enthalpy change of binding)” value was -0.62 ± 0.00 kJ/mol and the “ΔS^0 (entropy change of binding)” value is 117.38 ± 0.01 J mol^−1 K^−1.
